According to ChEMBL document CHEMBL1136231, “Synthesis of a novel family of diterpenes and their evaluation as anti-inflammatory agents” (Bioorg Med Chem Lett, 2003):
In brackets after ≈: the same amount, converted by molar mass. Each block holds one compound with its values, some of them ahead of it. Activity calls are given as the source filed them. The rule behind the calls is not given here.

Experiments:
Format in all cases: functional
[1] = Inhibition efficacy of TNF-alpha was tested in HPBMC (Human Peripheral Blood Mononuclear Cells); set-up: concentration or dose not given beside the values
[2] = Inhibition of TNF-alpha was tested in HPBMC (Human Peripheral Blood Mononuclear Cells)
[3] = (§1) Cytotoxicity in HPBMC (Human Peripheral Blood Mononuclear Cells); set-up: concentration or dose not given beside the values
[4] = as §1
Homo sapiens [5] = species: Homo sapiens; test: (§2) Cytotoxicity in HPBMC (Human Peripheral Blood Mononuclear Cells); Not active
[6] = as §2
[7] = Inhibition of TNF-alpha was tested in HPBMC (Human Peripheral Blood Mononuclear Cells); In active
Homo sapiens [8] = species: Homo sapiens; test: Inhibition efficacy of TNF-alpha was tested in HPBMC (Human Peripheral Blood Mononuclear Cells); Not active
[9] = Inhibition of TNF-alpha was tested in HPBMC (Human Peripheral Blood Mononuclear Cells); Inactive
[10] = Inhibition of TNF-alpha was tested in HPBMC (Human Peripheral Blood Mononuclear Cells); inactive

SMILES: C=C[C@@]1(C)CCC=C2[C@H]1CC[C@@H]1[C@](C)(CO)CCC[C@@]21C
Efficacy (Homo sapiens [5]): inactive
Efficacy [1]: 38%
IC50 [2]: 2.3 µg/mL (≈ 7.97 µM)

SMILES: COC(=O)[C@]1(C)CCC[C@@]2(C)C3=CCC[C@](C)(CO)[C@@H]3CC[C@H]12
Efficacy (Homo sapiens [5]): inactive
EC50 [6]: Not Active
IC50 [7]: Not Active
Efficacy (Homo sapiens [8]): inactive

SMILES: C=C[C@]1(C)CCC=C2[C@H]1CC[C@@H]1[C@](C)(C(=O)OC)CCC[C@@]21C
Efficacy [1]: 99%
IC50 [2]: 1.4 µg/mL (≈ 4.42 µM)
Efficacy [3]: 71%
EC50 [4]: 3.1 µg/mL (≈ 9.8 µM)

SMILES: C[C@]1(C(=O)O)CCC[C@]2(C)c3cc(O)ccc3CC[C@@H]12 [PODOCARIC ACID]
Efficacy (Homo sapiens [5]): inactive
IC50 [9]: Not Active
Efficacy (Homo sapiens [8]): inactive

SMILES: C=C[C@@]1(C)CC(=O)[C@]2(O)[C@@]3(C)[C@@H](O)CCC(C)(C)[C@@H]3[C@H](O)[C@H](OC(C)=O)[C@@]2(C)O1 [COLFORSIN]
Efficacy (Homo sapiens [5]): inactive
IC50 [10]: Not Active
Efficacy (Homo sapiens [8]): inactive

SMILES: C=C[C@]1(C)CCC=C2[C@H]1CC[C@@H]1[C@](C)(C(=O)O)CCC[C@@]21C
Efficacy [1]: 86%
IC50 [2]: 3.7 µg/mL (≈ 12.2 µM)
Efficacy [3]: 35%

SMILES: C=C[C@@]1(C)CCC=C2[C@H]1CC[C@@H]1[C@](C)(C(=O)O)CCC[C@@]21C
Efficacy [1]: 90%
IC50 [2]: 5.7 µg/mL (≈ 18.8 µM)
Efficacy [3]: 66%
EC50 [4]: 7.8 µg/mL (≈ 25.8 µM)

SMILES: C=C[C@]1(C)CCC=C2[C@H]1CC[C@@H]1[C@](C)(CO)CCC[C@@]21C
Efficacy [1]: 99%
IC50 [2]: 2.2 µg/mL (≈ 7.63 µM)
Efficacy [3]: 93%
EC50 [4]: 2.3 µg/mL (≈ 7.97 µM)

Now from value to compound, other results behind:

IC50 [2]: 2.8 µg/mL (≈ 9.26 µM)
SMILES: C=C[C@@]1(C)CCCC2=C1CC[C@@H]1[C@](C)(C(=O)O)CCC[C@@]21C
Efficacy [1]: 98%
Efficacy [3]: 99%
EC50 [4]: 2.2 µg/mL (≈ 7.27 µM)

IC50 [2]: 3.1 µg/mL (≈ 10.7 µM)
SMILES: C=C[C@@]1(C)CCCC2=C1CC[C@@H]1[C@](C)(CO)CCC[C@@]21C
Efficacy [1]: 99%
Efficacy [3]: 99%
EC50 [4]: 3.4 µg/mL (≈ 11.8 µM)

IC50 [2]: 0.6 µg/mL (≈ 1.9 µM)
SMILES: C=C[C@@]1(C)CCCC2=C1CC[C@@H]1[C@](C)(C(=O)OC)CCC[C@@]21C
Efficacy (Homo sapiens [5]): inactive
Efficacy [1]: 47%

IC50 [2]: 0.7 µg/mL (≈ 2.21 µM)
SMILES: C=C[C@@]1(C)CCC=C2[C@H]1CC[C@@H]1[C@](C)(C(=O)OC)CCC[C@@]21C
Efficacy [1]: 99%
Efficacy [3]: 98%
EC50 [4]: 1.8 µg/mL (≈ 5.69 µM)
